{"source": "patent US20250195678A1", "about": "“B-LYMPHOCYTE SPECIFIC AMATOXIN ANTIBODY CONJUGATES” (Heidelberg Pharma Research GmbH, priority 2019, published 2025)", "key": {"MEC-1 cell line": {"test_system": "MEC-1 cell line", "test": "96-hour CTG cytotoxicity assay on MEC-1", "assay_type": "cell-based, human", "conditions": "96-hour CTG assay", "procedure": "(§1) FIG. 16. Results of cytotoxicity studies on (A) MEC-1-, (B) MEC-2-, (C) Raji-, (D) Nalm-6-, and (E) Ramos cell lines, respectively, using the obinutuzumab amatoxin conjugates Obi-30.1699 and Obi-30.2115 in a 96-hour CTG assay in comparison to unconjugated α-amanitin.\n(§2) Results are depicted in FIG. 14.\n(§3) Results are depicted in FIG. 15.\n(§4) Cytotoxic activities of the obinutuzumab amatoxin conjugates Obi-30.1699 and Obi-30.2115 were assessed in vitro on MEC-1, MEC-2, Raji, Nalm-6, and Ramos cell lines, respectively, using a 96-hour CTG assay, in comparison to unconjugated α-amanitin. Results are depicted in FIG. 16."}, "MEC-2 cell line": {"test_system": "MEC-2 cell line", "test": "96-hour CTG cytotoxicity assay on MEC-2", "assay_type": "cell-based, human", "conditions": "96-hour CTG assay", "procedure": "as §1, §2, §3, §4"}, "Raji cell line": {"test_system": "Raji cell line", "test": "96-hour CTG cytotoxicity assay on Raji", "assay_type": "cell-based, human", "conditions": "96-hour CTG assay", "procedure": "as §1, §3, §4"}, "[1]": {"test_system": "Nalm-6 cells (CD20-negative)", "test": "96-hour CTG cytotoxicity assay on Nalm-6", "assay_type": "cell-based", "conditions": "96-hour CTG assay", "procedure": "as §1, §3, §4"}, "Ramos cell line": {"test_system": "Ramos cell line", "test": "96-hour CTG cytotoxicity assay on Ramos", "assay_type": "cell-based", "conditions": "96-hour CTG assay", "procedure": "as §1, §3, §4"}, "RNA-polymerase II": {"molecular_target": "RNA-polymerase II (Homo sapiens, UniProt P24928)", "conditions": "read-out: KD of complex with RNA-polymerase II; cited from earlier work"}}, "data": [{"smiles": "CC[C@H](C)[C@@H]1NC(=O)CNC(=O)[C@@H]2Cc3c([nH]c4cc(O)ccc34)[S+]([O-])C[C@@H](NC(=O)CNC1=O)C(=O)N[C@@H](CC(N)=O)C(=O)N1C[C@H](O)C[C@H]1C(=O)N[C@@H]([C@@H](C)[C@@H](O)CO)C(=O)N2", "note": "(stereo in doubt) [α-amanitin, reference compound]", "values": [{"measurement": "Cytotoxic effect on MEC-1 (in words)", "setting": "MEC-1 cell line", "result": "cytotoxic effects on all cell lines only in the millimolar range"}, {"measurement": "Cytotoxic effect on MEC-2 (in words)", "setting": "MEC-2 cell line", "result": "cytotoxic effects on all cell lines only in the millimolar range"}, {"measurement": "Cytotoxic effect on Raji (in words)", "setting": "Raji cell line", "result": "cytotoxic effects on all cell lines only in the millimolar range"}, {"measurement": "Cytotoxic effect on Nalm-6 (in words)", "setting": "[1]", "result": "cytotoxic effects on all cell lines only in the millimolar range"}, {"measurement": "Cytotoxic effect on Ramos (in words)", "setting": "Ramos cell line", "result": "cytotoxic effects on all cell lines only in the millimolar range"}, {"measurement": "Kd", "setting": "RNA-polymerase II", "result": 3, "unit": "nM"}]}]}
